Test systems include NCI-H522 lung; NCI/ADR-RES ovarian; OVCAR-3 ovarian; UACC-62 melanoma; SW-620 colon; RPMI-8226 leukemia; MDA-MB-231 breast; HOP-62 NSCLC; HCT-116 colon; HCT-15 colon.
Common to all, as to experiment: NCI anticancer screen, dose series, 48 h

SMILES strings stand for the structures.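 Protocol summary: plate cells (96-well), add compound at 5 concentrations, incubate 48 h, interpolate endpoints linearly. At the GI50, growth is halved. At the TGI there is no net growth.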

Take `Nc1ncn([C@H]2C[C@H](OP(=O)(O)OC[C@H]3O[C@@H](n4cnc5c(=O)[nH]c(N)nc54)C[C@@H]3O)[C@@H](CO)O2)c(=O)n1`: the GI50 with NCI-H522 lung is more than 100000 nM; in the assay with NCI/ADR-RES ovarian, more than 100 µM; in the assay with OVCAR-3 ovarian, more than 100000 nM; in the assay on UACC-62 melanoma it was more than 100 µM; in the assay with SW-620 colon, more than 100000 nM; with RPMI-8226 leukemia, more than 100000 nM. For the same compound, the values for the GI50 in the assay with MDA-MB-231 breast, in the assay on HOP-62 NSCLC and in the assay on HCT-116 colon were more than 100000 nM, 9270 nM and 23000 nM, respectively. The TGI with NCI-H522 lung, in the assay with NCI/ADR-RES ovarian, with OVCAR-3 ovarian, with UACC-62 melanoma, in the assay with SW-620 colon and with RPMI-8226 leukemia was more than 100 µM throughout. Further, the TGI with MDA-MB-231 breast, in the assay with HOP-62 NSCLC and in the assay on HCT-116 colon was more than 100 µM each time.

With `CN(C)CCS(=O)(=O)Nc1cc(-c2ccc3ncc(C#N)c(Nc4ccc(F)c(Cl)c4)c3c2)cnc1Cl`, the GI50 in the assay with NCI-H522 lung is 202 nM; in the assay on NCI/ADR-RES ovarian it was 2.11 µM; in the assay on OVCAR-3 ovarian, 130 nM; with UACC-62 melanoma it was 0.169 µM; in the assay with SW-620 colon it was 263 nM; with RPMI-8226 leukemia, 223 nM. Besides, the values for the GI50 in the assay on MDA-MB-231 breast, in the assay on HOP-62 NSCLC and in the assay with HCT-116 colon were 185 nM, 248 nM and 214 nM, respectively. In addition, the TGI in the assay with NCI-H522 lung was 0.883 µM; in the assay on NCI/ADR-RES ovarian, more than 29.3 µM; in the assay with OVCAR-3 ovarian it was 0.412 µM; with UACC-62 melanoma, 0.63 µM; in the assay with SW-620 colon, 1.43 µM; in the assay on RPMI-8226 leukemia, 0.897 µM. For the same compound, the TGI with MDA-MB-231 breast is 0.629 µM; in the assay with HOP-62 NSCLC, more than 22.7 µM; in the assay with HCT-116 colon it was 0.69 µM.

Turning to `COC(=O)CNc1nc(N(C)O)nc(N(C)O)n1`, the GI50 in the assay on NCI-H522 lung was 3730 nM; in the assay on NCI/ADR-RES ovarian, 2.86 µM; in the assay on HCT-15 colon it was 551 nM; in the assay on UACC-62 melanoma it was 4.3 µM; in the assay on SW-620 colon it was 5070 nM; in the assay on RPMI-8226 leukemia it was 1490 nM. Also, the GI50 was 4160 nM in the assay on MDA-MB-231 breast, 2120 nM with HOP-62 NSCLC and 1980 nM in the assay on HCT-116 colon. Besides, the TGI in the assay with NCI-H522 lung was more than 100 µM; in the assay with NCI/ADR-RES ovarian, more than 100 µM; in the assay with HCT-15 colon, more than 100 µM; in the assay with UACC-62 melanoma it was 29.1 µM; with SW-620 colon, more than 100 µM; with RPMI-8226 leukemia, more than 100 µM. For the same compound, the TGI in the assay on MDA-MB-231 breast, in the assay on HOP-62 NSCLC and in the assay with HCT-116 colon was more than 100 µM each time.

For the compound `CCCCCCCCCCCCCCCCN(CC)CC`, the GI50 is 1760 nM in the assay on NCI-H522 lung; 2870 nM with OVCAR-3 ovarian; 1880 nM in the assay on HCT-15 colon; 1.75 µM in the assay on UACC-62 melanoma; 2030 nM in the assay on SW-620 colon; 2230 nM with RPMI-8226 leukemia. Further, the GI50 was 1750 nM in the assay with MDA-MB-231 breast, 2870 nM in the assay with HOP-62 NSCLC and 1770 nM in the assay with HCT-116 colon. For the same compound, the TGI is 3.48 µM in the assay on NCI-H522 lung; 7.99 µM in the assay with OVCAR-3 ovarian; 3.66 µM in the assay on HCT-15 colon; 3.28 µM with UACC-62 melanoma; 3.9 µM in the assay on SW-620 colon; 4.75 µM with RPMI-8226 leukemia. For the same compound, the TGI with MDA-MB-231 breast was determined as 3.21 µM; in the assay with HOP-62 NSCLC, 8.77 µM; in the assay on HCT-116 colon it was 3.22 µM.

`O=c1cccc2n1CC1CNC[C@H]2C1`: the TGI in the assay with NCI-H522 lung, in the assay on NCI/ADR-RES ovarian, in the assay on OVCAR-3 ovarian, in the assay with HCT-15 colon, in the assay on UACC-62 melanoma and in the assay on SW-620 colon was more than 100 µM in each case. Moreover, the TGI with MDA-MB-231 breast, in the assay on HOP-62 NSCLC and in the assay with HCT-116 colon was more than 100 µM throughout.

For the compound `Cn1c(-c2c(N)n(Cc3ccc(F)cc3)c3nc(C#N)c(C#N)nc23)nc2ccccc21`, the GI50 is 7.56 µM with NCI/ADR-RES ovarian; 842 nM in the assay with OVCAR-3 ovarian; 2050 nM in the assay with HCT-15 colon; 3.37 µM in the assay on UACC-62 melanoma; 2470 nM with SW-620 colon; 1350 nM in the assay on RPMI-8226 leukemia. The GI50 was 5170 nM with MDA-MB-231 breast and 2320 nM in the assay on HOP-62 NSCLC. Further, the TGI with NCI/ADR-RES ovarian amounted to 22.5 µM; in the assay on OVCAR-3 ovarian, 2.6 µM; in the assay on HCT-15 colon, 13.6 µM; in the assay with UACC-62 melanoma, 26.6 µM; with SW-620 colon, 21 µM; with RPMI-8226 leukemia it was 7.17 µM. Besides, the TGI in the assay on MDA-MB-231 breast is 38.5 µM; with HOP-62 NSCLC, 22.5 µM.

As to `COc1cc2nc3cc([N+](=O)[O-])ccc3c(NCCNCC(C)O)c2cc1OC` (configuration not stated), the GI50 is 224 nM in the assay on NCI-H522 lung; 7.42 µM in the assay on NCI/ADR-RES ovarian; 482 nM with OVCAR-3 ovarian; 3270 nM in the assay on HCT-15 colon; 431 nM in the assay with SW-620 colon; 1550 nM in the assay on RPMI-8226 leukemia. In addition, the GI50 in the assay with MDA-MB-231 breast was 604 nM; with HOP-62 NSCLC it was 713 nM; in the assay on HCT-116 colon, 358 nM. The TGI with NCI-H522 lung stood at 1.06 µM; with NCI/ADR-RES ovarian, 23.6 µM; in the assay on OVCAR-3 ovarian it was 1.74 µM; in the assay with HCT-15 colon, 13.1 µM; in the assay on SW-620 colon, 3.09 µM; in the assay on RPMI-8226 leukemia it was 5.52 µM. The TGI in the assay with MDA-MB-231 breast came out at 3.08 µM; with HOP-62 NSCLC, 2.87 µM; with HCT-116 colon, 1.75 µM.

Consider `CN1C(=O)C2(c3ccccc31)C1CC3C(CO1)C1C2C3(CO)CN1C#N` (configuration not stated), for which the TGI with NCI-H522 lung, with NCI/ADR-RES ovarian, in the assay with OVCAR-3 ovarian, in the assay on HCT-15 colon, in the assay on UACC-62 melanoma and in the assay with RPMI-8226 leukemia was more than 100 µM throughout. For the same compound, the TGI in the assay with MDA-MB-231 breast, in the assay on HOP-62 NSCLC and in the assay with HCT-116 colon was more than 100 µM in each case.

Regarding `OCC1CCCC1O` (configuration not stated), the TGI with NCI-H522 lung, in the assay with NCI/ADR-RES ovarian, in the assay with OVCAR-3 ovarian, in the assay with HCT-15 colon, with UACC-62 melanoma and with SW-620 colon was more than 100 µM throughout. Besides, the TGI with RPMI-8226 leukemia, with MDA-MB-231 breast and with HCT-116 colon was more than 100 µM throughout.

`O=C(O)Cc1ccc(N=Nc2c(O)c(C(=O)O)cc3ccccc23)cc1`: the TGI in the assay on NCI/ADR-RES ovarian, in the assay with OVCAR-3 ovarian, with HCT-15 colon, in the assay with UACC-62 melanoma, in the assay with SW-620 colon and in the assay on RPMI-8226 leukemia was more than 100 µM in each case. Also, the TGI in the assay on MDA-MB-231 breast, in the assay on HOP-62 NSCLC and in the assay with HCT-116 colon was more than 100 µM in each case.

The values above are taken from PubChem BioAssay (NCI).
